In patent publication US10670605B2, “Cysteine reactive probes and uses thereof” (The Scripps Research Institute, priority 2015, dated 2020):

Tests used:
Assay in all cases: Competitive isoTOP-ABPP, cell lysates
Assay type in all cases: binding
XPO1 C34 (O14980) = XPO1 C34 (O14980) (Homo sapiens, UniProt O14980); conditions: for R value (DMSO/fragment) / isoTOP-ABPP ratio, O14980_C34: 500 μM
ZNF217 C286 (O75362) = ZNF217 C286 (O75362) (Homo sapiens, UniProt O75362); conditions: for isoTOP-ABPP ratio (reactivity profile), O75362_C286: 500 μm in-vitro ramos_231
PCK2 C306 (Q16822) = biological target: T1, PCK2 C306 (Q16822) (Homo sapiens, UniProt Q16822)
T1 sequence (Q16822 33-640): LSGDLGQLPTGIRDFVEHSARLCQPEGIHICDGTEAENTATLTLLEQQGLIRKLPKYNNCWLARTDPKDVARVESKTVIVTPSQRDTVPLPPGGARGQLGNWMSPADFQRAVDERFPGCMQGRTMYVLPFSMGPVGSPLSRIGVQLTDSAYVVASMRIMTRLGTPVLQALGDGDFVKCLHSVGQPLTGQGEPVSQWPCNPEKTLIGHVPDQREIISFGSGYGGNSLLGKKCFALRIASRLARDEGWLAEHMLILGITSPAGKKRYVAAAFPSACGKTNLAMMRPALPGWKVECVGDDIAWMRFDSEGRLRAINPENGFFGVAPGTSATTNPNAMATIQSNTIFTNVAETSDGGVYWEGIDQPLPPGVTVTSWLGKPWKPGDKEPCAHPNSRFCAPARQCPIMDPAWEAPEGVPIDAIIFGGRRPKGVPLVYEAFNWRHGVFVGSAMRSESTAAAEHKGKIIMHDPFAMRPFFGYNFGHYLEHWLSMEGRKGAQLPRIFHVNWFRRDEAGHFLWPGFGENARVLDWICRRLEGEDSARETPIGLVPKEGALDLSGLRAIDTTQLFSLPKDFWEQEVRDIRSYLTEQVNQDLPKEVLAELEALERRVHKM

IDH2 C308 (P48735) = biological target: T2, IDH2 C308 (P48735) (Homo sapiens, UniProt P48735); conditions: for isoTOP-ABPP ratio (reactivity profile), P48735_C308: 500 μm in-vitro ramos_231
T2 sequence (P48735 40-452): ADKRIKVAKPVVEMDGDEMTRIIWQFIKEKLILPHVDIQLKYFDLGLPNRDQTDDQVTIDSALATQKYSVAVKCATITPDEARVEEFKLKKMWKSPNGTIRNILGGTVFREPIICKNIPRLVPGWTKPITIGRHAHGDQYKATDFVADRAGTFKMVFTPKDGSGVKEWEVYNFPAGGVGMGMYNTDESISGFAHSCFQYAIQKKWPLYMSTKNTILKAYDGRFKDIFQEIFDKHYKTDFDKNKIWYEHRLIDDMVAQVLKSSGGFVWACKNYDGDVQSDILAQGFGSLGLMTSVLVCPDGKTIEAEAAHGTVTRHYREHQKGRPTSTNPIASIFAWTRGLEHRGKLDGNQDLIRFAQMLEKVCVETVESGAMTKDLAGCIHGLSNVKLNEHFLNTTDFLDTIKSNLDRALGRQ

UBE2L3 C86 (P68036) = UBE2L3 C86 (P68036) (Homo sapiens, UniProt P68036); conditions: for R value (DMSO/fragment) / isoTOP-ABPP ratio, P68036_C86: 500 μM; for isoTOP-ABPP reactivity ratio, P68036_C86: 500 μm
USP22 C171 (Q9UPT9) = biological target: T3, USP22 C171 (Q9UPT9) (Homo sapiens, UniProt Q9UPT9)
T3 sequence (Q9UPT9 1-525): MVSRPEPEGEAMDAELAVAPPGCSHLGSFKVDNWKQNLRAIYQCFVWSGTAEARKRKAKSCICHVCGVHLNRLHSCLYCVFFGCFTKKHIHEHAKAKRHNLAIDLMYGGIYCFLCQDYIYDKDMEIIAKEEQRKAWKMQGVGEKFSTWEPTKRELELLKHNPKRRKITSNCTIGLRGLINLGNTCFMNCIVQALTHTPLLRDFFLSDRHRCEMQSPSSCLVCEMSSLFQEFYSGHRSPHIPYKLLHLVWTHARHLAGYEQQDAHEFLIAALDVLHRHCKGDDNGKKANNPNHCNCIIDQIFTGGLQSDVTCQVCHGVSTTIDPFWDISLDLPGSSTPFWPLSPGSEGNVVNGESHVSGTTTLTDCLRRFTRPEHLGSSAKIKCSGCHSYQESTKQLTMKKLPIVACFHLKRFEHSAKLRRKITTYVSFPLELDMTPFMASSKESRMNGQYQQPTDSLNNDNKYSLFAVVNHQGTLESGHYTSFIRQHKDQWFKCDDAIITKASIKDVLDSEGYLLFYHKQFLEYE

## O=C(CCl)NC1C(O)OC(CO)C(O)C1O (mixture of isomers) [compound 44]
XPO1 C34 (O14980); 500 μm, in-vitro_ramos_231
  isoTOP-ABPP reactivity profile ratio, O14980_C34: 0.8

## O=C(CCl)Nc1cc(C(F)(F)F)cc(C(F)(F)F)c1 [compound 3]
XPO1 C34 (O14980); in vitro, MDA-MB-231
  R value (DMSO/fragment): 1.4
XPO1 C34 (O14980); invitro, ramos
  R value (DMSO/fragment): 1.6
ZNF217 C286 (O75362); 500 μM, in vitro, MDA-MB-231
  R value (DMSO/fragment): 1.4
PCK2 C306 (Q16822); 500 μM, in vitro, MDA-MB-231
  R value (DMSO/fragment): 10.6
PCK2 C306 (Q16822); 500 μM, invitro, ramos
  R value (DMSO/fragment): 0.9
IDH2 C308 (P48735); 500 μM, in vitro, MDA-MB-231
  R value (DMSO/fragment): 2.2
UBE2L3 C86 (P68036); in vitro, MDA-MB-231
  R value (DMSO/fragment): 1.2
UBE2L3 C86 (P68036); invitro, ramos
  R value (DMSO/fragment): 3.0

## C=CC(=O)N(c1ccccc1)c1ccc(Br)cc1 [compound 5]
XPO1 C34 (O14980); invitro, 231
  isoTOP-ABPP ratio, O14980_C34: 1.1
XPO1 C34 (O14980); invitro, ramos
  isoTOP-ABPP ratio, O14980_C34: 1.2
PCK2 C306 (Q16822); 500 μM, invitro, 231
  isoTOP-ABPP ratio, Q16822_C306: 1.7
USP22 C171 (Q9UPT9); 500 μM, invitro, ramos
  isoTOP-ABPP ratio, Q9UPT9_C171: 20.0
IDH2 C308 (P48735); 500 μM, invitro, 231
  isoTOP-ABPP ratio, P48735_C308: 0.8
UBE2L3 C86 (P68036); invitro, ramos
  isoTOP-ABPP ratio, P68036_C86: 4.8

## CNS(=O)(=O)C=Cc1ccc2c(ccn2Cc2ccccc2)c1 [compound 6]
XPO1 C34 (O14980); invitro, 231
  isoTOP-ABPP ratio, O14980_C34: 1.2
ZNF217 C286 (O75362); 500 μM, invitro, 231
  isoTOP-ABPP ratio O75362_C286: 0.9
UBE2L3 C86 (P68036); invitro, 231
  isoTOP-ABPP ratio, P68036_C86: 1.8

## C=CC(=O)N(Cc1cccnc1)c1ccc(Oc2ccccc2)c(C(F)(F)F)c1 [compound 15]
XPO1 C34 (O14980); 500 μm in-vitro ramos
  isoTOP-ABPP ratio (reactivity profile), O14980_C34: 1.2
UBE2L3 C86 (P68036); 500 μm in-vitro ramos
  isoTOP-ABPP ratio (reactivity profile), P68036_C86: 1.3

## O=C(CCl)NC12CC3CC(CC(C3)C1)C2 [compound 21]
XPO1 C34 (O14980); 500 μm in-vitro ramos
  isoTOP-ABPP ratio (reactivity profile), O14980_C34: 1.2
XPO1 C34 (O14980); 500 μm in-vitro ramos_231
  isoTOP-ABPP ratio (reactivity profile), O14980_C34: 0.9
ZNF217 C286 (O75362)
  isoTOP-ABPP ratio (reactivity profile), O75362_C286: 0.9
PCK2 C306 (Q16822); 500 μm in-vitro ramos
  isoTOP-ABPP ratio (reactivity profile), Q16822_C306: 2.0
PCK2 C306 (Q16822); 500 μm in-vitro ramos_231
  isoTOP-ABPP ratio (reactivity profile), Q16822_C306: 1.2
IDH2 C308 (P48735)
  isoTOP-ABPP ratio (reactivity profile), P48735_C308: 0.6
UBE2L3 C86 (P68036); 500 μm in-vitro ramos
  isoTOP-ABPP ratio (reactivity profile), P68036_C86: 2.0
UBE2L3 C86 (P68036); 500 μm in-vitro ramos_231
  isoTOP-ABPP ratio (reactivity profile), P68036_C86: 1.2

## O=C(CCl)N1CCOCC1 [compound 22]
XPO1 C34 (O14980); 500 μm in-vitro ramos_231
  isoTOP-ABPP ratio (reactivity profile), O14980_C34: 1.1
USP22 C171 (Q9UPT9); 500 μm in-vitro ramos
  isoTOP-ABPP ratio (reactivity profile), Q9UPT9_C171: 1.1
UBE2L3 C86 (P68036); 500 μm in-vitro ramos
  isoTOP-ABPP ratio (reactivity profile), P68036_C86: 0.8

## N#C/C(=C\c1cc(C(F)(F)F)cc(C(F)(F)F)c1)C(N)=O [compound 23]
XPO1 C34 (O14980); 500 μm in-vitro ramos
  isoTOP-ABPP ratio (reactivity profile), O14980_C34: 5.3
XPO1 C34 (O14980); 500 μm in-vitro ramos_231
  isoTOP-ABPP ratio (reactivity profile), O14980_C34: 3.4
ZNF217 C286 (O75362)
  isoTOP-ABPP ratio (reactivity profile), O75362_C286: 20.0
PCK2 C306 (Q16822); 500 μm in-vitro ramos_231
  isoTOP-ABPP ratio (reactivity profile), Q16822_C306: 3.0
USP22 C171 (Q9UPT9); 500 μm in-vitro ramos_231
  isoTOP-ABPP ratio (reactivity profile), Q9UPT9_C171: 5.1
UBE2L3 C86 (P68036); 500 μm in-vitro ramos
  isoTOP-ABPP ratio (reactivity profile), P68036_C86: 13.2
UBE2L3 C86 (P68036); 500 μm in-vitro ramos_231
  isoTOP-ABPP ratio (reactivity profile), P68036_C86: 7.4

## CC(Br)C(=O)Nc1cc(C(F)(F)F)cc(C(F)(F)F)c1 (stereo not drawn) [compound 24]
XPO1 C34 (O14980); 500 μm in-vitro ramos
  isoTOP-ABPP ratio (reactivity profile), O14980_C34: 1.1
USP22 C171 (Q9UPT9); 500 μm in-vitro ramos
  isoTOP-ABPP ratio (reactivity profile), Q9UPT9_C171: 3.1

## O=C(/C=C/c1ccccc1)Nc1cc(C(F)(F)F)cc(C(F)(F)F)c1 [compound 26]
XPO1 C34 (O14980); 500 μm in-vitro ramos
  isoTOP-ABPP ratio (reactivity profile), O14980_C34: 0.9
USP22 C171 (Q9UPT9); 500 μm in-vitro ramos
  isoTOP-ABPP ratio (reactivity profile), Q9UPT9_C171: 1.0
UBE2L3 C86 (P68036); 500 μm in-vitro ramos
  isoTOP-ABPP ratio (reactivity profile), P68036_C86: 0.7

## O=C(CCl)N1CCN(CC(=O)N2CCOCC2)CC1 [compound 29]
XPO1 C34 (O14980); 500 μm in-vitro ramos
  isoTOP-ABPP ratio (reactivity profile), O14980_C34: 0.9
XPO1 C34 (O14980); 500 μm in-vitro ramos_231
  isoTOP-ABPP ratio (reactivity profile), O14980_C34: 1.3
ZNF217 C286 (O75362)
  isoTOP-ABPP ratio (reactivity profile), O75362_C286: 0.9
PCK2 C306 (Q16822); 500 μm in-vitro ramos
  isoTOP-ABPP ratio (reactivity profile), Q16822_C306: 0.5
PCK2 C306 (Q16822); 500 μm in-vitro ramos_231
  isoTOP-ABPP ratio (reactivity profile), Q16822_C306: 1.1
IDH2 C308 (P48735)
  isoTOP-ABPP ratio (reactivity profile), P48735_C308: 1.0
UBE2L3 C86 (P68036); 500 μm in-vitro ramos
  isoTOP-ABPP ratio (reactivity profile), P68036_C86: 1.5
UBE2L3 C86 (P68036); 500 μm in-vitro ramos_231
  isoTOP-ABPP ratio (reactivity profile), P68036_C86: 0.9

## CC(C)(C)c1cc(NC(=O)CCl)on1 [compound 32]
XPO1 C34 (O14980); 500 μm, in-vitro_ramos
  isoTOP-ABPP reactivity ratio, O14980_C34: 1.0
XPO1 C34 (O14980); 500 μm, in-vitro_ramos_231
  isoTOP-ABPP reactivity ratio, O14980_C34: 1.2
PCK2 C306 (Q16822); 500 μm, in-vitro_ramos_231
  isoTOP-ABPP reactivity ratio, Q16822_C306: 3.2
USP22 C171 (Q9UPT9); 500 μm, in-vitro_ramos
  isoTOP-ABPP reactivity ratio, Q9UPT9_C171: 9.3
UBE2L3 C86 (P68036); in-vitro_ramos
  isoTOP-ABPP reactivity ratio, P68036_C86: 0.9
UBE2L3 C86 (P68036); in-vitro_ramos_231
  isoTOP-ABPP reactivity ratio, P68036_C86: 1.1
